We go through seven molecules from ChEMBL document CHEMBL4765458, “Synthesis and biological evaluation of organoselenium (NSAIDs-SeCN and SeCF) derivatives as potential anticancer agents” (Eur J Med Chem, 2020).

Assay [1] deals with A549. Briefly: cells. The note with it: Homo sapiens, A549, 48 h.
Description: Cytotoxicity against human A549 cells assessed as reduction in cell viability measured after 48 hrs by MTT assay
Assay [2] relates to MCF7. The assay is described as follows: Cytotoxicity against human MCF7 cells assessed as reduction in cell viability measured after 48 hrs by MTT assay. In kind it is functional, cell-based. Conditions: MCF7, 48 h. A general note: Formazan colour is commonly taken as a measure of viable cells.
Assay [3] concerns HeLa. The assay is described as follows: Cytotoxicity against human HeLa cells assessed as reduction in cell viability measured after 48 hrs by MTT assay. In kind it is functional, cell-based.
Assay [4] relates to HeLa. The assay is described as follows: Cytotoxicity against human HeLa cells assessed as reduction in cell viability measured after 72 hrs by MTT assay. In kind it is functional, cell-based.
Assay [5] concerns MCF7. Briefly: Cytotoxicity against human MCF7 cells assessed as reduction in cell viability measured after 24 hrs by MTT assay. In kind it is functional, cell-based. The note with it: MCF7, 24 h.
Assay [6] concerns SW480. Briefly: Cytotoxicity against human SW480 cells assessed as reduction in cell viability measured after 48 hrs by MTT assay. In kind it is functional, cell-based. Conditions: SW480, 48 h.
The test system of assay [7] is SW480. Briefly: Cytotoxicity against human SW480 cells assessed as reduction in cell viability measured after 72 hrs by MTT assay. In kind it is functional, cell-based. Conditions: SW480, 72 h.
Assay [8] concerns MCF7. Briefly: Cytotoxicity against human MCF7 cells assessed as reduction in cell viability measured after 72 hrs by MTT assay. In kind it is functional, cell-based. Conditions: MCF7, 72 h.
For assay [9], the system named is A549. The assay is described as follows: Cytotoxicity against human A549 cells assessed as reduction in cell viability measured after 72 hrs by MTT assay. In kind it is functional, cell-based. The note with it: A549, 72 h.
For assay [10], the system named is SW480. Briefly: Cytotoxicity against human SW480 cells assessed as reduction in cell viability measured after 24 hrs by MTT assay. Conditions: SW480, 24 h. In kind it is functional, cell-based.
Assay [11] has as its system HeLa. The assay is described as follows: Cytotoxicity against human HeLa cells assessed as reduction in cell viability measured after 24 hrs by MTT assay. In kind it is functional, cell-based.
Assay [12] in a line: Antioxidant activity assessed as DPPH radical scavenging activity incubated for 30 mins under dark condition relative to control. In kind it is functional. Also noted: concentration or dose not given beside the values. (In general: The DPPH test is a chemical assay of radical scavenging.)
The test system of assay [13] is A549. Briefly: Cytotoxicity against human A549 cells assessed as reduction in cell viability measured after 24 hrs by MTT assay. In kind it is functional, cell-based. The note with it: A549, 24 h.

pIC50: −log10 of the molar value. Where only a bound is given, the exact number is not on record here.

The pIC50 is the negative decadic logarithm of the IC50, by convention in mol/L. Broadly, the inhibition is the percentage by which the read-out fell short of the control. Turning to `Cc1cccc(Nc2ccccc2C(=O)NCCC[Se]C(F)(F)F)c1C`, the pIC50 is 4.43 in assay [1]; 5.04 in [2]; 4.55 in [3]; less than 4.30 in assay [4]; 5.07 in assay [5]; 5.08 in assay [6]. For the same molecule, the pIC50 in [7] is 4.99; in assay [8], 5.16; in [9] it was less than 4.30; in [10] it was 4.91; in [11], 4.61; in assay [13], 4.56. Also, in assay [12], the inhibition turned out to be 38.9%.
As for `CCc1cccc2c3c([nH]c12)C(CC)(CC(=O)NCCC[Se]C#N)OCC3` (stereo unspecified), the pIC50 was 4.66 in assay [1]; 4.43 in assay [2]; 4.76 in assay [3]; 4.55 in assay [4]; 4.45 in assay [5]; 4.72 in assay [6]. The negative-log IC50 (pIC50) in assay [7] was 4.69; in assay [8], less than 4.30; in assay [9], 4.44; in assay [10] it was 4.71; in assay [11], 4.57; in assay [13] it was 4.55. The inhibition in assay [12] was 24.5%.
Take `C[C@H](C(=O)NCCC[Se]C#N)c1cccc(C(=O)c2ccccc2)c1`: the pIC50 was 4.55 in assay [1]; 4.95 in assay [2]; 4.73 in assay [3]; 4.46 in [4]; 5.02 in assay [5]; 5.08 in assay [6]. In addition, the pIC50 was 5.11 in assay [7]; 4.90 in assay [8]; 4.49 in [9]; 4.99 in [10]; 4.59 in [11]; 4.62 in [13]. The inhibition in assay [12] amounted to 30.4%.
For `CC(C(=O)NCCC[Se]C#N)c1ccc(-c2ccccc2)c(F)c1` (stereo unspecified), the pIC50 in assay [1] was 4.49; in assay [2] it was 4.49; in assay [3] it was 4.49; in [4], 4.80; in assay [5] it was 4.65; in [6], 4.52. The pIC50 is 4.66 in [7]; less than 4.30 in assay [8]; less than 4.30 in [9]; 4.63 in assay [10]; 4.44 in [11]; 4.63 in assay [13]. Besides, the inhibition in assay [12] was 16.3%.
Take `COc1ccc2cc([C@H](C)C(=O)NCCC[Se]C(F)(F)F)ccc2c1`: the pIC50 in assay [1] was 4.47; in [2], 4.66; in assay [3] it was 4.65; in [4] it was 4.51; in [5], 4.71; in [6] it was 4.80. Besides, the pIC50 in assay [7] was 4.60; in assay [8], 4.45; in [9], less than 4.30; in assay [10], 5.00; in assay [11], 4.78; in assay [13], 4.55. Also, the inhibition in [12] amounted to 37.2%.
For the molecule `COc1ccc2cc([C@H](C)C(=O)NCCC[Se]C#N)ccc2c1`, the pIC50 was less than 4.30 in assay [1]; 4.57 in assay [2]; 4.61 in assay [3]; 4.45 in assay [4]; 4.55 in [5]; 4.66 in assay [6]. The pIC50 in assay [7] was 4.52; in assay [8], less than 4.30; in assay [9], less than 4.30; in [10], 4.92; in assay [11], 4.67; in [13] it was 4.49. In assay [12], the inhibition is 22.6%.
As for `CC1=C(CC(=O)NCCC[Se]C#N)c2cc(F)ccc2/C1=C\c1ccc([S+](C)[O-])cc1` (stereo unspecified), the pIC50 in assay [1] is 4.82; in assay [2], 5.08; in assay [3] it was 4.79; in assay [4], 4.67; in assay [5], 4.88; in [6], 4.91. In addition, the negative logarithm of the IC50 (pIC50) is 4.92 in assay [7]; 4.95 in [8]; 5.03 in assay [9]; 4.81 in [10]; 4.55 in [11]; 4.94 in assay [13]. In assay [12], the inhibition is 21.2%.
